Test results taken from patent US20250361209A1, “CRYSTAL FORMS OF N-(3-FLUOROPHENYL)-6-(6,7-DIMETHOXYQUINOLIN-4-OXY)-3,4-DIHYDROQUINOLINE-1(2H)-CARBOXAMIDE METHANESULFONATE AND PREPARATION METHOD THEREOF” (Shanghai Yi Feng Biotechnology Co., Ltd., priority 2023, published 2025).
Like-named read-outs stand apart in the source and are kept apart here.

Key:
[1] = Comparison of oral absorption of K-13 (free base) and its methanesulfonate, plasma concentration-time and PK; assay type: in vivo, BALB/c mice; details: 10 mg · kg^−1 PO; for concentration at 8 h / concentration at 24 h / concentration at 0 h: 10 mg · kg^−1, BALB/c mice
Text: Comparison of oral absorption of K-13 (free base) and its methanesulfonate (N-(3-fluorophenyl)-6-(6. 7-dimethoxyquinolin-4-oxy)-3.4-dihydroquinoline-1(2H)-carboxamide methanesulfonate)

[2] = Test of influencing factors of crystalline forms A, B and C (total impurity); assay type: physicochemical; details: methanesulfonate
Text: Example 3 Test of Influencing Factors of Crystalline Forms A, B and C

[3] = BALB/c mice, analyte K-13-1, methanesulfonate
[4] = High temperature (60° C.), 0 day
[5] = High temperature (60° C.), 5 days
[6] = High temperature (60° C.), 10 days
[7] = Illumination (5000 + 500 lux), 0 day
[8] = Illumination (5000 + 500 lux), 5 days
[9] = Illumination (5000 + 500 lux), 10 days
[10] = Illumination (5000 + 500 lux), 30 days

COc1cc2nccc(Oc3ccc4c(c3)CCCN4C(=O)Nc3cccc(F)c3)c2cc1OC [K-13-1, N-(3-fluorophenyl)-6-(6,7-dimethoxyquinolin-4-oxy)-3,4-dihydroquinoline-1(2H)-carboxamide]
plasma Concentration of K-13-1, PO-1 ([1]; BALB/c mice, 0.083 h, animal PO-1): 29.6 ng/mL
plasma Concentration of K-13-1, PO-2 ([1]; BALB/c mice, 0.083 h, animal PO-2): 46.6 ng/mL
plasma Concentration of K-13-1, Mean ([1]; BALB/c mice, 0.083 h, mean): 38.1 ng/mL
plasma Concentration of K-13-1, PO-1 ([1]; BALB/c mice, 0.25 h, animal PO-1): 186 ng/mL
plasma Concentration of K-13-1, PO-2 ([1]; BALB/c mice, 0.25 h, animal PO-2): 215 ng/mL
plasma Concentration of K-13-1, Mean ([1]; BALB/c mice, 0.25 h, mean): 201 ng/mL
plasma Concentration of K-13-1, PO-1 ([1]; BALB/c mice, 0.5 h, animal PO-1): 480 ng/mL
plasma Concentration of K-13-1, PO-2 ([1]; BALB/c mice, 0.5 h, animal PO-2): 865 ng/mL
plasma Concentration of K-13-1, Mean ([1]; BALB/c mice, 0.5 h, mean): 673 ng/mL
plasma Concentration of K-13-1, PO-1 ([1]; BALB/c mice, 1 h, animal PO-1): 551 ng/mL
plasma Concentration of K-13-1, PO-2 ([1]; BALB/c mice, 1 h, animal PO-2): 420 ng/mL
plasma Concentration of K-13-1, Mean ([1]; BALB/c mice, 1 h, mean): 485 ng/mL
plasma Concentration of K-13-1, PO-1 ([1]; BALB/c mice, 2 h, animal PO-1): 136 ng/mL
plasma Concentration of K-13-1, PO-2 ([1]; BALB/c mice, 2 h, animal PO-2): 485 ng/mL
plasma Concentration of K-13-1, Mean ([1]; BALB/c mice, 2 h, mean): 311 ng/mL
plasma Concentration of K-13-1, PO-1 ([1]; BALB/c mice, 4 h, animal PO-1): 220 ng/mL
plasma Concentration of K-13-1, PO-2 ([1]; BALB/c mice, 4 h, animal PO-2): 395 ng/mL
plasma Concentration of K-13-1, Mean ([1]; BALB/c mice, 4 h, mean): 308 ng/mL
plasma Concentration of K-13-1, PO-1 ([1]; BALB/c mice, 24 h, animal PO-1): BLOQ
AUC0-inf ([1]; BALB/c mice, analyte K-13-1): 2894 ng·h/mL
AUC0-t ([1]; BALB/c mice, analyte K-13-1): 2870 ng·h/mL
Cmax ([1]; BALB/c mice, analyte K-13-1): 673 ng/mL
Kel ([1]; BALB/c mice, analyte K-13-1): 0.200 h⁻¹
F (oral bioavailability) ([1]; BALB/c mice, analyte K-13-1, listed as free base): 20%
concentration at 8 h ([1]; BALB/c, mouse, plasma, po, 8 h, animal PO-1, read-out: plasma Concentration of K-13-1, PO-1): 97.2 ng/mL
concentration at 8 h ([1]; BALB/c, mouse, plasma, po, 8 h, animal PO-2, read-out: plasma Concentration of K-13-1, PO-2): 58.8 ng/mL
concentration at 8 h ([1]; BALB/c, mouse, plasma, po, 8 h, mean, read-out: plasma Concentration of K-13-1, Mean): 78 ng/mL
concentration at 24 h ([1]; BALB/c, mouse, plasma, po, 24 h, animal PO-2, read-out: plasma Concentration of K-13-1, PO-2): 4.65 ng/mL
concentration at 24 h ([1]; BALB/c, mouse, plasma, po, 24 h, mean, read-out: plasma Concentration of K-13-1, Mean): 4.65 ng/mL
half-life ([1]; BALB/c, mouse, plasma, po, 10 mg/kg, BALB/c mice, analyte K-13-1): 3.5 h
Tmax ([1]; BALB/c, mouse, plasma, po, 10 mg/kg, BALB/c mice, analyte K-13-1, read-out: Tmax): 0.5 h

COc1cc2nccc(Oc3ccc4c(c3)CCCN4C(=O)Nc3cccc(F)c3)c2cc1OC [K-13-MS-1, N-(3-fluorophenyl)-6-(6,7-dimethoxyquinolin-4-oxy)-3,4-dihydroquinoline-1(2H)-carboxamide methanesulfonate]
increase of in vivo exposure AUClast versus free base ([1]; BALB/c mice): 2.46 times
increase of in vivo exposure Cmax versus free base ([1]; BALB/c mice): 3.14 times
plasma Concentration of K-13-1, PO-1 ([1]; BALB/c mice, 0.083 h, animal PO-1, methanesulfonate): 431 ng/mL
plasma Concentration of K-13-1, PO-2 ([1]; BALB/c mice, 0.083 h, animal PO-2, methanesulfonate): 414 ng/mL
plasma Concentration of K-13-1, Mean ([1]; BALB/c mice, 0.083 h, mean, methanesulfonate): 423 ng/mL
plasma Concentration of K-13-1, PO-1 ([1]; BALB/c mice, 0.25 h, animal PO-1, methanesulfonate): 2175 ng/mL
plasma Concentration of K-13-1, PO-2 ([1]; BALB/c mice, 0.25 h, animal PO-2, methanesulfonate): 2059 ng/mL
plasma Concentration of K-13-1, Mean ([1]; BALB/c mice, 0.25 h, mean, methanesulfonate): 2117 ng/mL
plasma Concentration of K-13-1, PO-1 ([1]; BALB/c mice, 0.5 h, animal PO-1, methanesulfonate): 1868 ng/mL
plasma Concentration of K-13-1, PO-2 ([1]; BALB/c mice, 0.5 h, animal PO-2, methanesulfonate): 1775 ng/mL
plasma Concentration of K-13-1, Mean ([1]; BALB/c mice, 0.5 h, mean, methanesulfonate): 1822 ng/mL
plasma Concentration of K-13-1, PO-1 ([1]; BALB/c mice, 1 h, animal PO-1, methanesulfonate): 1824 ng/mL
plasma Concentration of K-13-1, PO-2 ([1]; BALB/c mice, 1 h, animal PO-2, methanesulfonate): 1317 ng/mL
plasma Concentration of K-13-1, Mean ([1]; BALB/c mice, 1 h, mean, methanesulfonate): 1571 ng/mL
plasma Concentration of K-13-1, PO-1 ([1]; BALB/c mice, 2 h, animal PO-1, methanesulfonate): 922 ng/mL
plasma Concentration of K-13-1, PO-2 ([1]; BALB/c mice, 2 h, animal PO-2, methanesulfonate): 1319 ng/mL
plasma Concentration of K-13-1, Mean ([1]; BALB/c mice, 2 h, mean, methanesulfonate): 1121 ng/mL
plasma Concentration of K-13-1, PO-1 ([1]; BALB/c mice, 4 h, animal PO-1, methanesulfonate): 884 ng/mL
plasma Concentration of K-13-1, PO-2 ([1]; BALB/c mice, 4 h, animal PO-2, methanesulfonate): 981 ng/mL
plasma Concentration of K-13-1, Mean ([1]; BALB/c mice, 4 h, mean, methanesulfonate): 932 ng/mL
plasma Concentration of K-13-1, PO-1 ([1]; BALB/c mice, 8 h, animal PO-1, methanesulfonate): 130 ng/mL
plasma Concentration of K-13-1, PO-2 ([1]; BALB/c mice, 8 h, animal PO-2, methanesulfonate): 89.0 ng/mL
plasma Concentration of K-13-1, Mean ([1]; BALB/c mice, 8 h, mean, methanesulfonate): 109 ng/mL
plasma Concentration of K-13-1, PO-2 ([1]; BALB/c mice, 24 h, animal PO-2, methanesulfonate): BLOQ
plasma Concentration of K-13-1, Mean ([1]; BALB/c mice, 24 h, mean, methanesulfonate): BLOQ
AUC0-inf [1, 3]: 7350 ng·h/mL
AUC0-t [1, 3]: 7051 ng·h/mL
Cmax [1, 3]: 2117 ng/mL
F (oral bioavailability) [1, 3]: 50%
Kel [1, 3]: 0.364 h⁻¹
T1/2 [1, 3]: 1.9 h
Tmax [1, 3]: 0.25 h
concentration at 0 h ([1]; BALB/c, mouse, plasma, po, animal PO-1, read-out: plasma Concentration of K-13-1, PO-1): 0 ng/mL
concentration at 0 h ([1]; BALB/c, mouse, plasma, po, animal PO-2, read-out: plasma Concentration of K-13-1, PO-2): 0 ng/mL
concentration at 0 h ([1]; BALB/c, mouse, plasma, po, mean, read-out: plasma Concentration of K-13-1, Mean): 0 ng/mL

COc1cc2nccc(Oc3ccc4c(c3)CCCN4C(=O)Nc3cccc(F)c3)c2cc1OC [Crystalline form A, N-(3-fluorophenyl)-6-(6,7-dimethoxyquinolin-4-oxy)-3,4-dihydroquinoline-1(2H)-carboxamide methanesulfonate]
Total impurity % ([2]; High humidity (RH75%), 0 day): 0.91%
Total impurity % ([2]; High humidity (RH75%), 5 days): 0.92%
Total impurity % ([2]; High humidity (RH75%), 10 days): 0.99%
Total impurity % ([2]; High humidity (RH75%), 30 days): 1.25%
Total impurity % [2, 4]: 0.91%
Total impurity % [2, 5]: 4.50%
Total impurity % [2, 6]: 6.96%
Total impurity % [2, 7]: 0.91%
Total impurity % [2, 8]: 1.89%
Total impurity % [2, 9]: 3.70%
Total impurity % [2, 10]: 4.21%

COc1cc2nccc(Oc3ccc4c(c3)CCCN4C(=O)Nc3cccc(F)c3)c2cc1OC [Crystalline form B, N-(3-fluorophenyl)-6-(6,7-dimethoxyquinolin-4-oxy)-3,4-dihydroquinoline-1(2H)-carboxamide methanesulfonate]
Total impurity % ([2]; High humidity (RH75%), 0 day): 0.86%
Total impurity % ([2]; High humidity (RH75%), 5 days): 1.03%
Total impurity % ([2]; High humidity (RH75%), 10 days): 1.09%
Total impurity % ([2]; High humidity (RH75%), 30 days): 1.12%
Total impurity % [2, 4]: 0.86%
Total impurity % [2, 5]: 1.00%
Total impurity % [2, 6]: 0.98%
Total impurity % [2, 7]: 0.86%
Total impurity % [2, 8]: 0.94%
Total impurity % [2, 9]: 1.12%
Total impurity % [2, 10]: 1.33%
